Tests used:
[1] = tested on: human and murine cell lines; experiment: Western blot, statements over human and murine cell lines; format: cell-based; conditions: IC50 concentration, 96 h
Experimental: (§1) For the Western Blot analysis, cells were rinsed and lysed as previously described. An amount of 25 µg protein was used for SDS-PAGE. Antibodies for c-Abl (sc-131), Actin (sc-1616), Cdc2-p34 (sc-8395), EPS15 (sc-1840), FAK (sc-558), c-Fos (sc-52), p38 (sc-7972), p53 (sc-6243) and STAT5 (sc-835x) were obtained from Santa Cruz (Santa Cruz Biotechnology, Heidelberg, Germany), while c-Src (2109) and phospho-Src Y416 (2101) were purchased from Cell Signaling (Cell Signaling Technology, Frankfurt a. M., Germany). The EGFR (06-847), phospho-EGFR Y992 (07-821) and phospho-EGFR Y1045 (04-284) stem from Upstate (Upstate, Schwalbach, Germany) and the hnRNP-K (A300-676A) from Bethyl Labs (Bethyl Laboratories, Montgomery, Texas, USA). Finally p73 (IMG-246) was supplied by Imgenex (Imgenex, Hamburg, Germany). Depending on the primary antibody the secondary antibodies were either horseradish peroxidase-conjugated anti-mouse (AP 160P), anti-rabbit (AP 132P) or anti-sheep (AP 147P) (Chemicon, Schwalbach, Germany).
(§2) Semi-quantitative analysis were carried out with Kodak 1D Image Analysis Software in reference to the vehicle treated control cells (see supplementary table S7).

[2] = tested on: A2C12; experiment: Cell cycle analysis by flow cytometry; format: cell-based, mouse; conditions: IC50 concentration, 96 h
Method in brief: (§3)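 Flow cytometric cell-cycle profiling follows trypsin harvest and PBS washing, with staining via a three-reagent DNA kit (first incubation 10 min at room temperature; final one at 4°C, light-protected) and storage on ice until measurement.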

[3] = tested on: A549; experiment: Western blot, semi-quantitative protein expression; format: cell-based, human
Experimental: as §1, §2

[4] = tested on: CaCo2; experiment: Western blot, semi-quantitative protein expression; format: cell-based, human
Experimental: as §1, §2

[5] = tested on: all tested cell lines; experiment: Caspase-Glo 3/7 activity assay, all tested cell lines; format: cell-based; conditions: IC50 concentration, 24 h; vs vehicle
Experimental: According to instructions, Caspase-Glo® 3/7 assay (Promega GmbH, Mannheim, Germany) was used for monitoring caspase activity. Briefly, the same volume Caspase-Glo reagent as culture medium was added and incubated 1 h at room temperature. Luminescence was read with a Victor3 Wallac 1420 Multilabel counter (PerkinElmer, Rodgau, Germany). Background absorbance (medium only) was subtracted and the data given as percent of vehicle controls.

[6] = tested on: A2C12; experiment: Western blot, semi-quantitative protein expression; format: cell-based, mouse
Experimental: as §1, §2

[7] = tested on: A549; experiment: Cell cycle analysis by flow cytometry; format: cell-based, human; conditions: IC50 concentration, 96 h
Method in brief: as §3

[8] = tested on: CaCo2; experiment: Cell cycle analysis by flow cytometry; format: cell-based, human; conditions: IC50 concentration, 96 h
Method in brief: as §3

[9] = tested on: HepG2; experiment: Cell cycle analysis by flow cytometry; format: cell-based, human; conditions: IC50 concentration, 96 h
Method in brief: as §3

CSc1nc(NCCc2ccc(Cl)cc2)c2cnn(CC(Cl)c3ccccc3)c2n1 (stereo not drawn) [Si57]
hnRNP-K protein level [1]: remained equal
Cells in G1 phase [2]: 44.1%
Cells in G2 phase [2]: 12.2%
Cells in S phase [2]: 43.7%
Actin protein expression [3]: 92
Cdc2-p34 protein expression [3]: 55
EGFR Y992-p protein expression [3]: 58
EGFR Y1045-p protein expression [3]: 6.66
EGFR protein expression [3]: 9
EPS15 protein expression [3]: 70
FAK protein expression [3]: 154
STAT5 protein expression [3]: 34
c-Abl protein expression [3]: 43
c-Fos protein expression [3]: 49
c-Src Y416-p protein expression [3]: 65
c-Src protein expression [3]: 100
hnRNP-K protein expression [3]: 83
p38 protein expression [3]: 27
p53 protein expression [3]: 33
p73 protein expression [3]: 24
Actin protein expression [4]: 131
Cdc2-p34 protein expression [4]: 119
EGFR Y992-p protein expression [4]: 163
EGFR Y1045-p protein expression [4]: 259
EGFR protein expression [4]: 37
EPS15 protein expression [4]: 122
FAK protein expression [4]: 111
STAT5 protein expression [4]: 123
c-Abl protein expression [4]: 217
c-Fos protein expression [4]: 129
c-Src Y416-p protein expression [4]: 155
c-Src protein expression [4]: 106
hnRNP-K protein expression [4]: 98
p38 protein expression [4]: 84
p53 protein expression [4]: 70
p73 protein expression [4]: 78
Change of caspase-3/7 activity in all cell lines [5]: declined
Actin protein expression [6]: 97
EGFR Y992-p protein expression [6]: 117
EGFR Y1045-p protein expression [6]: 29
EGFR protein expression [6]: 66
EPS15 protein expression [6]: 89
FAK protein expression [6]: 47
STAT5 protein expression [6]: 104
c-Abl protein expression [6]: 49
c-Fos protein expression [6]: 82
c-Src protein expression [6]: 92
hnRNP-K protein expression [6]: 104
p38 protein expression [6]: 59
p53 protein expression [6]: 60
p73 protein expression [6]: 40
Cells in G1 phase [7]: 70.5%
Cells in G2 phase [7]: 5.5%
Cells in S phase [7]: 24%
Cells in G1 phase [8]: 41.7%
Cells in G2 phase [8]: 18.1%
Cells in S phase [8]: 40.2%
Cells in G1 phase [9]: 63.9%
Cells in G2 phase [9]: 8.1%
Cells in S phase [9]: 28%

Source: publication PMC2994747, “Molecular Characterization of c-Abl/c-Src Kinase Inhibitors Targeted against Murine Tumour Progenitor Cells that Express Stem Cell Markers” (PLoS ONE, 2010)
